Legend:
Test in all cases: KINOMEscan assay (Eurofins DiscoverX)
Format in all cases: binding
kinome (kinase panel) [1] = target: T1, kinome (kinase panel) (Homo sapiens, UniProt Q9BVS4); details: RIOK2; 1000 nM; read-out: Percent Control
T1 construct: purchased Eurofins DiscoverX

kinome (kinase panel) [2] = target: T2, kinome (kinase panel) (Homo sapiens, UniProt P22694); details: PKAC-beta (Entrez PRKACB); 1000 nM; read-out: Percent Control
T2 construct: purchased Eurofins DiscoverX

kinome (kinase panel) [3] = target: T3, kinome (kinase panel) (Homo sapiens, UniProt P36897); details: TGFBR1; 1000 nM; read-out: Percent Control
T3 construct: purchased Eurofins DiscoverX

kinome (kinase panel) [4] = target: T4, kinome (kinase panel) (Homo sapiens, UniProt P53667); details: LIMK1; 1000 nM; read-out: Percent Control
T4 construct: purchased Eurofins DiscoverX

kinome (kinase panel) [5] = target: T5, kinome (kinase panel) (Homo sapiens, UniProt Q15746); details: MYLK; 1000 nM; read-out: Percent Control
T5 construct: purchased Eurofins DiscoverX

kinome (kinase panel) [6] = target: T6, kinome (kinase panel) (Homo sapiens, UniProt P22455); details: FGFR4; 1000 nM; read-out: Percent Control
T6 construct: purchased Eurofins DiscoverX
T6 sequence (P22455 22-802): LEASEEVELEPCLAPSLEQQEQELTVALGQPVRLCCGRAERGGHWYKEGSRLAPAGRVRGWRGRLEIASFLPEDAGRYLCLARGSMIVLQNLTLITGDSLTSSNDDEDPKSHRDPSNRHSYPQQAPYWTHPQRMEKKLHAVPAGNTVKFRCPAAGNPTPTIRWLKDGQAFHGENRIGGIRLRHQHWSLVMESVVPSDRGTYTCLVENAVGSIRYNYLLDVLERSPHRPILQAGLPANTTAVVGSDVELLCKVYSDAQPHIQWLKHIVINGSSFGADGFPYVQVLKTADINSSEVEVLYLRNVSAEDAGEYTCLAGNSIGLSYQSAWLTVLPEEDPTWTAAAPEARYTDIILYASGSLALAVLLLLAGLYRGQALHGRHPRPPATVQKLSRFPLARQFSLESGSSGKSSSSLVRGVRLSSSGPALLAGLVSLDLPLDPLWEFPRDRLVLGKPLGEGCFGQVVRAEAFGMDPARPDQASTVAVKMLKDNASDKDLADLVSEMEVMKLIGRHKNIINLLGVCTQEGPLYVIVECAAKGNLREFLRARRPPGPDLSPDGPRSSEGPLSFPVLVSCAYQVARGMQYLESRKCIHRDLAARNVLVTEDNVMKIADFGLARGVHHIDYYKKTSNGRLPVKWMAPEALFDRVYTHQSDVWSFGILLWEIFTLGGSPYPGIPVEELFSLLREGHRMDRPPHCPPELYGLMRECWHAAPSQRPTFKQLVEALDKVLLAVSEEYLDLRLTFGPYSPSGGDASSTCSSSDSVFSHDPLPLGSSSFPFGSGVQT

kinome (kinase panel) [7] = target: T7, kinome (kinase panel) (Homo sapiens, UniProt Q05397); details: FAK (Entrez PTK2); 1000 nM; read-out: Percent Control
T7 construct: purchased Eurofins DiscoverX

kinome (kinase panel) [8] = target: T8, kinome (kinase panel) (Homo sapiens, UniProt Q8IW41); details: MAPKAPK5; 1000 nM; read-out: Percent Control
T8 construct: purchased Eurofins DiscoverX

kinome (kinase panel) [9] = target: T9, kinome (kinase panel) (Homo sapiens, UniProt Q96GD4); details: AURKB; 1000 nM; read-out: Percent Control
T9 construct: purchased Eurofins DiscoverX

kinome (kinase panel) [10] = target: T10, kinome (kinase panel) (Homo sapiens, UniProt P29322); details: EPHA8; 1000 nM; read-out: Percent Control
T10 construct: purchased Eurofins DiscoverX

kinome (kinase panel) [11] = target: T11, kinome (kinase panel) (Homo sapiens, UniProt Q8N5S9); details: CAMKK1; 1000 nM; read-out: Percent Control
T11 construct: purchased Eurofins DiscoverX

kinome (kinase panel) [12] = target: T12, kinome (kinase panel) (Homo sapiens, UniProt O60331); details: PIP5K1C; 1000 nM; read-out: Percent Control
T12 construct: purchased Eurofins DiscoverX
T12 sequence (O60331 whole entry): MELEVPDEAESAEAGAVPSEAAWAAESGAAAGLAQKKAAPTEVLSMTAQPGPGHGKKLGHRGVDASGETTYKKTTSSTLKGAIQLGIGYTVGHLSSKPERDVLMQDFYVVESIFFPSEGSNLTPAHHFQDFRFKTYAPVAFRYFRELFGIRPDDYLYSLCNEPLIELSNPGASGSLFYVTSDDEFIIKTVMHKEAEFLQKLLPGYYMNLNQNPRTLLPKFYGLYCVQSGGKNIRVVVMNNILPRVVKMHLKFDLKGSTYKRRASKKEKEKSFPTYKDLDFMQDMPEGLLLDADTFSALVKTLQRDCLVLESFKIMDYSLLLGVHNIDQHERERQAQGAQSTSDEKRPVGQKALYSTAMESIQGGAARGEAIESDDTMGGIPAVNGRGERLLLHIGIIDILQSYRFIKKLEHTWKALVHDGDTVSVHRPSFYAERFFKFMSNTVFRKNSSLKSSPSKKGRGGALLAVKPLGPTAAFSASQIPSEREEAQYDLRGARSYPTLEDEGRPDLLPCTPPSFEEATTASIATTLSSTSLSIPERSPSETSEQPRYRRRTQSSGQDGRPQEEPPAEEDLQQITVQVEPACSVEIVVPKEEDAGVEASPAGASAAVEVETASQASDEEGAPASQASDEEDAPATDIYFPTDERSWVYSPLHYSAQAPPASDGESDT

kinome (kinase panel) [13] = target: T13, kinome (kinase panel) (Homo sapiens, UniProt O15111); details: IKK-alpha (Entrez CHUK); 1000 nM; read-out: Percent Control
T13 construct: purchased Eurofins DiscoverX

kinome (kinase panel) [14] = target: T14, kinome (kinase panel) (Homo sapiens, UniProt Q07912); details: TNK2; 1000 nM; read-out: Percent Control
T14 construct: purchased Eurofins DiscoverX
T14 sequence (Q07912 whole entry): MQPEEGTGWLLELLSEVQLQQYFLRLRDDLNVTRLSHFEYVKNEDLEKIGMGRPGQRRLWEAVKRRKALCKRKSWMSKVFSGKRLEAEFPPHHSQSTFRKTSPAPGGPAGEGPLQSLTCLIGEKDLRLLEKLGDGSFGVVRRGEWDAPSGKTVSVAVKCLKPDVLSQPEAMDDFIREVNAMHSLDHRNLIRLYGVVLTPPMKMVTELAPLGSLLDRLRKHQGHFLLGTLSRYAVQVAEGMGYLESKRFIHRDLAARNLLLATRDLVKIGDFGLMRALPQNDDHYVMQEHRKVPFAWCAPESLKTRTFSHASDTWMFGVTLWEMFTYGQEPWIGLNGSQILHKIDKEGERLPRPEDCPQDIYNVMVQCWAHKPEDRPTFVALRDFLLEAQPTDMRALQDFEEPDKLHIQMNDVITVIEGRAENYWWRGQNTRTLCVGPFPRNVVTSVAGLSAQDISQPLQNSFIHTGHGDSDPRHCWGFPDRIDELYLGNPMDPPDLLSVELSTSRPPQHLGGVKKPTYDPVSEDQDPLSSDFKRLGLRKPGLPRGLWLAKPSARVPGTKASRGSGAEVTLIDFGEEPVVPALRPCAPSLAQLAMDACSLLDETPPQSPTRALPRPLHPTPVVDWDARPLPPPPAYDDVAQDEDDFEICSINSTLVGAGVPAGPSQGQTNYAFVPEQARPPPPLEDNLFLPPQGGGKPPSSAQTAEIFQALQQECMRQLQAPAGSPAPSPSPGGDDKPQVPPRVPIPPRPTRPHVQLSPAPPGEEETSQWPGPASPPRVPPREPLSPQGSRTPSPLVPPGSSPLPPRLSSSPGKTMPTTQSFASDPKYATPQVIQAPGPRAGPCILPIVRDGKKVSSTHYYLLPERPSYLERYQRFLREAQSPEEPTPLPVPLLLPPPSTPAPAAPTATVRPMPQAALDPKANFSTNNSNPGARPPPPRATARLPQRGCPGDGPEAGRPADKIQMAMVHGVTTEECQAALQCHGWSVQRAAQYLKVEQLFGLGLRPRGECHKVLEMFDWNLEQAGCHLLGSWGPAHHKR

kinome (kinase panel) [15] = target: T15, kinome (kinase panel) (Homo sapiens, UniProt P00533, DEL746-750); details: EGFR(E746-A750del); 1000 nM; read-out: Percent Control
T15 construct: purchased Eurofins DiscoverX
T15 sequence (P00533 with tags, fused parts or gaps DEL746-750): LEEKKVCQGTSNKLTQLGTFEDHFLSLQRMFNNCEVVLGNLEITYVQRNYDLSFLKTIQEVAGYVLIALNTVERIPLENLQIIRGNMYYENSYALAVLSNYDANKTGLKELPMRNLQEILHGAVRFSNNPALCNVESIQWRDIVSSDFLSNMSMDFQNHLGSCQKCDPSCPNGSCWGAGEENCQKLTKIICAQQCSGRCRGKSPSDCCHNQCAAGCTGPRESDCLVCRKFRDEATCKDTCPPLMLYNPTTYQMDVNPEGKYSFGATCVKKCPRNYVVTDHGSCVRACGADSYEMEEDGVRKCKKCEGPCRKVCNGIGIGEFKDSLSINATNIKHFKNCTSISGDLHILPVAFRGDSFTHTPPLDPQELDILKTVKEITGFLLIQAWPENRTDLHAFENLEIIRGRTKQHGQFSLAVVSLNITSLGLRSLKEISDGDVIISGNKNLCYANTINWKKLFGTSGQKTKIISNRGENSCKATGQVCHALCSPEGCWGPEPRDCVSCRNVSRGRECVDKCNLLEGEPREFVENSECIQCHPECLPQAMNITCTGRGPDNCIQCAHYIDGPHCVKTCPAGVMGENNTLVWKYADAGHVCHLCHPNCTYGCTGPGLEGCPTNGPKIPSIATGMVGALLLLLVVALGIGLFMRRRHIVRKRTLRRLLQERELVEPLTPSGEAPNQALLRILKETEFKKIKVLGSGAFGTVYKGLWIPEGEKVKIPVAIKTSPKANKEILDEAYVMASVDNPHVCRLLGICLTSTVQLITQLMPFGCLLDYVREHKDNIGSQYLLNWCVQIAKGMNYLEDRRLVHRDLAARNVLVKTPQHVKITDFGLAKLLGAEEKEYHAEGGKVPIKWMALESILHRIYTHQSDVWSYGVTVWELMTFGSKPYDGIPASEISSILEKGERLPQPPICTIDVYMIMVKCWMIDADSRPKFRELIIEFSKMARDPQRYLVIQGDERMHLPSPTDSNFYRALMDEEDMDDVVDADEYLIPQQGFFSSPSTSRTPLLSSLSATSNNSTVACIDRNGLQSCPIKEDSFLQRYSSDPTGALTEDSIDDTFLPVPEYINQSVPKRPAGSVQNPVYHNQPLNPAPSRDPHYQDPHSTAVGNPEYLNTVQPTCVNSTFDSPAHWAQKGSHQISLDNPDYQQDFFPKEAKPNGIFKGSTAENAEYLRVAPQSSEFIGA

kinome (kinase panel) [16] = target: T16, kinome (kinase panel) (Homo sapiens, UniProt P10721, L576P); details: […]; 1000 nM; read-out: Percent Control
T16 construct: purchased Eurofins DiscoverX

kinome (kinase panel) [17] = target: T17, kinome (kinase panel) (Homo sapiens, UniProt P51956); details: NEK3; 1000 nM; read-out: Percent Control
T17 construct: purchased Eurofins DiscoverX

kinome (kinase panel) [18] = target: T18, kinome (kinase panel) (Homo sapiens, UniProt P08581, M1250T); details: […]; 1000 nM; read-out: Percent Control
T18 construct: purchased Eurofins DiscoverX

kinome (kinase panel) [19] = target: T19, kinome (kinase panel) (Homo sapiens, UniProt Q9NRM7); details: LATS2; 1000 nM; read-out: Percent Control
T19 construct: purchased Eurofins DiscoverX

kinome (kinase panel) [20] = target: T20, kinome (kinase panel) (Homo sapiens, UniProt P42679); details: CTK (Entrez MATK); 1000 nM; read-out: Percent Control
T20 construct: purchased Eurofins DiscoverX

kinome (kinase panel) [21] = target: T21, kinome (kinase panel) (Homo sapiens, UniProt Q9HBY8); details: SGK2; 1000 nM; read-out: Percent Control
T21 construct: purchased Eurofins DiscoverX

kinome (kinase panel) [22] = target: T22, kinome (kinase panel) (Homo sapiens, UniProt O95382); details: ASK2 (Entrez MAP3K6); 1000 nM; read-out: Percent Control
T22 construct: purchased Eurofins DiscoverX

kinome (kinase panel) [23] = target: T23, kinome (kinase panel) (Homo sapiens, UniProt Q9UQB9); details: AURKC; 1000 nM; read-out: Percent Control
T23 construct: purchased Eurofins DiscoverX

kinome (kinase panel) [24] = target: T24, kinome (kinase panel) (Homo sapiens, UniProt P42336, M1043I); details: read-out: Percent Control
T24 construct: purchased Eurofins DiscoverX

kinome (kinase panel) [25] = target: T25, kinome (kinase panel) (Homo sapiens, UniProt Q14680); details: MELK; 1000 nM; read-out: Percent Control
T25 construct: purchased Eurofins DiscoverX

kinome (kinase panel) [26] = target: T26, kinome (kinase panel) (Homo sapiens, UniProt P36896); details: ACVR1B; 1000 nM; read-out: Percent Control
T26 construct: purchased Eurofins DiscoverX

kinome (kinase panel) [27] = target: T27, kinome (kinase panel) (Homo sapiens, UniProt Q02156); details: PRKCE; 1000 nM; read-out: Percent Control
T27 construct: purchased Eurofins DiscoverX

kinome (kinase panel) [28] = target: T28, kinome (kinase panel) (Homo sapiens, UniProt Q59H18); details: TNNI3K; 1000 nM; read-out: Percent Control
T28 construct: purchased Eurofins DiscoverX

kinome (kinase panel) [29] = target: T29, kinome (kinase panel) (Homo sapiens, UniProt P42681); details: TXK; 1000 nM; read-out: Percent Control
T29 construct: purchased Eurofins DiscoverX

kinome (kinase panel) [30] = target: T30, kinome (kinase panel) (Homo sapiens, UniProt P52333); details: JAK3(JH1domain-catalytic); 1000 nM; read-out: Percent Control
T30 construct: purchased Eurofins DiscoverX

kinome (kinase panel) [31] = target: T31, kinome (kinase panel) (Homo sapiens, UniProt Q9Y6R4); details: MAP3K4; 1000 nM; read-out: Percent Control
T31 construct: purchased Eurofins DiscoverX

kinome (kinase panel) [32] = target: T32, kinome (kinase panel) (Homo sapiens, UniProt Q9UQM7); details: CAMK2A; 1000 nM; read-out: Percent Control
T32 construct: purchased Eurofins DiscoverX

kinome (kinase panel) [33] = target: T33, kinome (kinase panel) (Homo sapiens, UniProt Q09013); details: DMPK; 1000 nM; read-out: Percent Control
T33 construct: purchased Eurofins DiscoverX
T33 sequence (Q09013 whole entry): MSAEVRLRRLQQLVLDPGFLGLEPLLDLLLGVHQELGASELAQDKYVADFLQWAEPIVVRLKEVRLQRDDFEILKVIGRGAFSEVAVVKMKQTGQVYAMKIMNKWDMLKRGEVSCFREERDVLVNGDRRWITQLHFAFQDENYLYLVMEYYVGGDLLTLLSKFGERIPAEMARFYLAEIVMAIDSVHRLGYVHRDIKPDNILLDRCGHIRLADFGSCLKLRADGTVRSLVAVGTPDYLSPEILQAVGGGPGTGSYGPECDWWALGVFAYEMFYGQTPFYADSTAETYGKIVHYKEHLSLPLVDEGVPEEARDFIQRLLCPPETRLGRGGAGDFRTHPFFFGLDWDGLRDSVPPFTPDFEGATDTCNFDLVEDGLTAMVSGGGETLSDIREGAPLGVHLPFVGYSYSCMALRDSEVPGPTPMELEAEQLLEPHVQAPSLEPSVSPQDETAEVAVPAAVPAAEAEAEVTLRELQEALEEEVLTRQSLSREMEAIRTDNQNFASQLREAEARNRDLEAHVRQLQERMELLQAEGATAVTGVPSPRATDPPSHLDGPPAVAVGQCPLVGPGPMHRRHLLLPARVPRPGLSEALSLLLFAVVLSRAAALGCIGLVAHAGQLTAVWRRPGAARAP

T1 sequence (Q9BVS4 whole entry): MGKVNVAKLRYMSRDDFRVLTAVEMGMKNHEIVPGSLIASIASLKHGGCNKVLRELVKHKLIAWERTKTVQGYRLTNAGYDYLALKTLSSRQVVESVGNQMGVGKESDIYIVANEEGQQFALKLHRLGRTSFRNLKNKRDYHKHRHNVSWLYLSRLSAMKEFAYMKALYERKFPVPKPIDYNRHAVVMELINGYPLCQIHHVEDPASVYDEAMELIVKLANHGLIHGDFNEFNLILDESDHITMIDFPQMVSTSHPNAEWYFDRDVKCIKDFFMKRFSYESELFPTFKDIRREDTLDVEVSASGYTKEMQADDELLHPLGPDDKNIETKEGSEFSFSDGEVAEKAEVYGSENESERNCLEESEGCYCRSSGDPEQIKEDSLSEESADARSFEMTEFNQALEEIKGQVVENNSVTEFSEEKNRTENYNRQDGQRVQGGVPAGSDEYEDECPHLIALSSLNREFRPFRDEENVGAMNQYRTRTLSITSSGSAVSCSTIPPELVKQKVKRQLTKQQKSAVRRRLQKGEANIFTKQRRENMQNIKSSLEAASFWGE

`CN(C)C(=O)c1cc2cnc(Nc3ccc(-c4csc5c(=O)cc(N6CCOCC6)oc45)cc3)nc2n1C1CCCC1` [SRX3177] showed a remaining binding at 1 µM (kinome (kinase panel) [1]) of 6.6%, a remaining binding at 1 µM (kinome (kinase panel) [2]) of 100% and a remaining binding at 1 µM (kinome (kinase panel) [3]) of 100%. It also gave a remaining binding at 1 µM (kinome (kinase panel) [4]) of 85%, a remaining binding at 1 µM (kinome (kinase panel) [5]) of 5.4% and a remaining binding at 1 µM (kinome (kinase panel) [6]) of 86%. For the same compound, the remaining binding at 1 µM (kinome (kinase panel) [7]) was 90%, the remaining binding at 1 µM (kinome (kinase panel) [8]) was 72% and the remaining binding at 1 µM (kinome (kinase panel) [9]) was 4.9%. The remaining binding at 1 µM (kinome (kinase panel) [10]) was 92%, the remaining binding at 1 µM (kinome (kinase panel) [11]) was 46% and the remaining binding at 1 µM (kinome (kinase panel) [12]) was 87%. The remaining binding at 1 µM (kinome (kinase panel) [13]) was 61%, the remaining binding at 1 µM (kinome (kinase panel) [14]) was 90% and the remaining binding at 1 µM (kinome (kinase panel) [15]) was 72%. It also gave a remaining binding at 1 µM (kinome (kinase panel) [16]) of 58%, a remaining binding at 1 µM (kinome (kinase panel) [17]) of 90% and a remaining binding at 1 µM (kinome (kinase panel) [18]) of 86%. It also gave a remaining binding at 1 µM (kinome (kinase panel) [19]) of 42%, a remaining binding at 1 µM (kinome (kinase panel) [20]) of 94% and a remaining binding at 1 µM (kinome (kinase panel) [21]) of 65%. For the same compound, the remaining binding at 1 µM (kinome (kinase panel) [22]) was 91%, the remaining binding at 1 µM (kinome (kinase panel) [23]) was 21% and the remaining binding at 1 µM (kinome (kinase panel) [24]) was 70%. For the same compound, the remaining binding at 1 µM (kinome (kinase panel) [25]) was 100%, the remaining binding at 1 µM (kinome (kinase panel) [26]) was 100% and the remaining binding at 1 µM (kinome (kinase panel) [27]) was 93%. It also gave a remaining binding at 1 µM (kinome (kinase panel) [28]) of 94%, a remaining binding at 1 µM (kinome (kinase panel) [29]) of 98% and a remaining binding at 1 µM (kinome (kinase panel) [30]) of 13%. The remaining binding at 1 µM (kinome (kinase panel) [31]) was 90%, the remaining binding at 1 µM (kinome (kinase panel) [32]) was 76% and the remaining binding at 1 µM (kinome (kinase panel) [33]) was 100%.
